ChEMBL document CHEMBL3856181, “Cigarette Smoke-Induced Lung Disease Predisposes to More Severe Infection with Nontypeable Haemophilus influenzae: Protective Effects of Andrographolide” (J Nat Prod, 2016)
The source made the active and inactive calls.

Columns and labels:
Format in all cases: functional, organism-based
Mus musculus [1] = assay: Antiinflammatory activity in cigarette smoke-predisposed BALB/c mouse model of NTHi-inflammation assessed as suppression of lung TNF-alpha level at 5 and 10 mg/kg, ip administered post 1 and 24 hrs of NTHi-challenge by ELISA
Mus musculus [2] = assay: Activation of Nrf2 in cigarette smoke-predisposed BALB/c mouse model of NTHi-inflammation assessed as increase in lung GPx2 expression at 5 and 10 mg/kg, ip administered post 1 and 24 hrs of NTHi-challenge by RT-PCR method
[3] = Downregulation of MMP9 gene expression in lungs of cigarette smoke-predisposed BALB/c mouse model of NTHi-inflammation at 5 and 10 mg/kg, ip administered post 1 and 24 hrs of NTHi-challenge by RT-PCR method
[4] = Reduction of Keap1 gene expression in lungs of cigarette smoke-predisposed BALB/c mouse model of NTHi-inflammation at 5 and 10 mg/kg, ip administered post 1 and 24 hrs of NTHi-challenge by RT-PCR method
Mus musculus [5] = assay: Activation of Nrf2 in cigarette smoke-predisposed BALB/c mouse model of NTHi-inflammation assessed as increase in lung NQO1 expression at 5 and 10 mg/kg, ip administered post 1 and 24 hrs of NTHi-challenge by RT-PCR method
Mus musculus [6] = assay: Antiinflammatory activity in cigarette smoke-predisposed BALB/c mouse model of NTHi-inflammation assessed as suppression of lung IL-1 beta level at 5 and 10 mg/kg, ip administered post 1 and 24 hrs of NTHi-challenge by ELISA
Mus musculus [7] = assay: Antiinflammatory activity in cigarette smoke-predisposed BALB/c mouse model of NTHi-inflammation assessed as suppression of lung 8-OHdG level at 5 and 10 mg/kg, ip administered post 1 and 24 hrs of NTHi-challenge by ELISA
Mus musculus [8] = assay: Activation of Nrf2 in cigarette smoke-predisposed BALB/c mouse model of NTHi-inflammation assessed as increase in lung OH-1 expression at 5 and 10 mg/kg, ip administered post 1 and 24 hrs of NTHi-challenge by RT-PCR method
[9] = Downregulation of MMP8 gene expression in lungs of cigarette smoke-predisposed BALB/c mouse model of NTHi-inflammation at 5 and 10 mg/kg, ip administered post 1 and 24 hrs of NTHi-challenge by RT-PCR method
Mus musculus [10] = assay: Activation of Nrf2 in cigarette smoke-predisposed BALB/c mouse model of NTHi-inflammation assessed as increase in lung GR expression at 5 and 10 mg/kg, ip administered post 1 and 24 hrs of NTHi-challenge by RT-PCR method
Mus musculus [11] = assay: Activation of Nrf2 in cigarette smoke-predisposed BALB/c mouse model of NTHi-inflammation assessed as increase in lung GCLM expression at 5 and 10 mg/kg, ip administered post 1 and 24 hrs of NTHi-challenge by RT-PCR method
Mus musculus [12] = assay: Antiinflammatory activity in cigarette smoke-predisposed BALB/c mouse model of NTHi-inflammation assessed as suppression of lung CXCL1/KC level at 5 and 10 mg/kg, ip administered post 1 and 24 hrs of NTHi-challenge by ELISA
Mus musculus [13] = assay: Anti-inflammatory activity in cigarette smoke-predisposed BALB/c mouse model of NTHi-inflammation assessed as reduction in macrophage infiltration in BAL fluid at 10 mg/kg, ip administered at 1 and 24 hrs post NTHi-challenge by Wright-staining based differential cell counting method
Mus musculus [14] = assay: Antiinflammatory activity in cigarette smoke-predisposed BALB/c mouse model of NTHi-inflammation assessed as reduction in lung inflammation score at 10 mg/kg, ip administered at 1 and 24 hrs post NTHi-challenge by hematoxylin and eosin staining-based method
Mus musculus [15] = assay: Induction of Nrf2 nuclear translocation in cigarette smoke-predisposed BALB/c mouse model of NTHi-inflammation assessed as Nrf2 binding to antioxidant response element consensus DNA binding site at 5 and 10 mg/kg, ip administered post 1 and 24 hrs of NTHi-challenge by ELISA
Mus musculus [16] = assay: Anti-inflammatory activity in cigarette smoke-predisposed BALB/c mouse model of NTHi-inflammation assessed as reduction in neutrophil infiltration in BAL fluid at 10 mg/kg, ip administered at 1 and 24 hrs post NTHi-challenge by Wright-staining based differential cell counting method

C=C1CC[C@@H]2[C@](C)(CO)[C@H](O)CC[C@@]2(C)[C@@H]1C/C=C1/C(=O)OC[C@H]1O
active: inhibition (Mus musculus [1]) | Activity (Mus musculus [2]) | Activity [3] | Activity [4] | Activity (Mus musculus [5]) | inhibition (Mus musculus [6]) | inhibition (Mus musculus [7]) | Activity (Mus musculus [8]) | Activity [9] | Activity (Mus musculus [10]) | Activity (Mus musculus [11]) | inhibition (Mus musculus [12]) | Activity (Mus musculus [13]) | Activity (Mus musculus [14]) | Activity (Mus musculus [15]) | Activity (Mus musculus [16])
